Here are results for one compound from patent US20230172984A1, “CLEARANCE OF SENESCENT CELLS BY ACTIVATION OF iNKT CELLS” (THE REGENTS OF THE UNIVERSITY OF CALIFORNIA, priority 2020, published 2023).

Common to all, as to assay type: in vivo, mouse
In test [1] the test system is senescent preadipocytes (C12FDG^Hi) in eWAT of HFD mice. Description: C12FDG flow cytometry assay (SA-βgal activity) on eWAT SVF of HFD mice. The protocol: (§1) MATERIALS AND METHODS. Mouse husbandry. All procedures involving mice were performed according to the IACUC standards following ethics approval by the animal committee at the University of California, San Francisco. Male C57BL6/J on chow or HFD fed mice. HFD mice were fed a high-fat diet (60% kcal from fat) from 6 weeks until 22 weeks of age. All experiments on HFD mice were performed at 22-24 weeks total age (16-18 weeks on HFD). Age-matched male C57BL6/J mice on standard rodent chow diet were used as controls. For the lung injury model, 10-week-old male C57BL/6J mice were used. The animals were divided into three groups: the control group, the injured group, and the α-GalCer treated group. The animals in the control group received vehicle only (i.p.) on day 10. The injured group animals received bleomycin (3 U/kg) via the intratracheal route at the start of the experiment (day 0). The animals in the α-GalCer treated groups received bleomycin (3 U/kg) on day 0, and i.p. injection of α-GalCer (2 μg/mouse) on day 10. The animals in all the groups were sacrificed on day 14, and lungs were harvested for isolation of primary pulmonary Alveolar Type II cells (ATII) on the same day. For the hydroxyproline assay, mice were euthanized 21 days after injury.
Epidydmal white adipose tissue stromal vascular fraction (eWAT SVF) isolation. eWAT SVF was isolated using standard protocols. Briefly, mice were euthanized, and epididymal fat pads were harvested, washed twice in D-PBS and minced. eWAT pads were digested with 1 U/ml Collagenase-D (Roche) in 1×HBSS containing 1% BSA (Sigma-Aldrich) for 1 hr at 37° C. Digested fat tissue was then strained twice through 100 μm strainers and neutralized with 30 ml of complete culture media (DMEM-F12 1:1, 10% FBS, 1×Penicillin-streptomycin). Samples were spun at 500 g for 5 minutes, shaken to resuspend the SVF pellet and then spun again. The resulting SVF pellet containing blood cells was lysed with ACKS buffer, washed in D-PBS and spun down. Total live SVF cells were counted using trypan blue and then used for various assays.
C12FDG flow cytometry assay. eWAT SVF cells isolated and counted as described above were adjusted to 3×10^6 cells/ml in complete culture media and incubated with 33 μM C12FDG for 1 hr in a 37° C. water bath. Cells were then spun down at 500 g for 5 minutes, washed with Cell Staining buffer, and stained with anti-CD45-APC (clone 30F-11) and anti-CD31-PE-Cy7 (clone 390) each at a 1:200 dilution on ice for 30 minutes. Cells were then washed in Cell Staining buffer and resuspended in Cell Staining buffer containing 1×7-AAD. Samples were analyzed on an Attune acoustic focusing cytometer. Gates were set as follows: cells (FSC-A/SSC-A), forward scatter singlets (FSC-H/FSC-A), side-scatter singlets (SSC-H/SSC-A), live cells (7-AAD^−), non-immune cells (CD45^−), non-endothelial cells (CD31^−) and analyzed for C12FDG fluorescence. […] Data were analyzed with FlowJo (v. 10). For Lung, 1×10^6 cells from each sample were used to perform the assay. The cells were incubated with 66 μm of C12FDG in sterile DMEM containing DNase for 1 hour at 37° C. Following the incubation, the cells were washed with cell staining buffer, blocked with anti CD16/32 mouse monoclonal antibody (1:1000, prepared by the UCSF monoclonal antibody core), and stained with APC anti-mouse CD45 (1:400), and 7-AAD (1:1000). The gating strategy followed selected 7-AAD^−, CD45^−, and C12FDG^+ cells. […]

Test [2] can be described thus: Bleomycin lung injury survival study. The conditions noted are these: bleomycin 4 U/kg intratracheal, α-GalCer or vehicle at day 5, vs vehicle-injected mice; FIG. 4E. From the text: Bleomycin lung injury. For measurement of lung collagen, 3 U/kg Bleomycin was instilled intratracheally, with injection of α-GalCer or vehicle at day 10, followed by lung harvest for hydroxyproline assay at 20 days. For the survival study, 4 U/kg Bleomycin was instilled intratracheally, with injection of α-GalCer or vehicle at day 5.

The nature of test [3]: Bleomycin lung injury, hydroxyproline assay (whole lung collagen content). The conditions noted are these: bleomycin 3 U/kg, α-GalCer or vehicle at day 10; FIG. 4D. On the procedure: as §1, with “injury. Bleomycin lung injury. […] Absorbance was measured at 550 nm and the values were computed from the standard curve.” for “injury.”

For `CCCCCCCCCCCCCCCCCCCCCCCCCC(=O)N[C@@H](CO[C@H]1O[C@H](CO)[C@H](O)[C@H](O)[C@H]1O)[C@H](O)[C@H](O)CCCCCCCCCCCCCC` [GalCer, alpha-Galactosylceramide], the “senescent cells (C12FDG+ SVF cells), Traj18^−/− HFD mice” value in test [1] (HFD fed Traj18^−/− mice (lack invariant TCR chain) injected with GalCer) is reported as “failed to reduce senescent cells in Traj18^−/− mice”. The “senescent cells (C12FDG+ SVF cells), WT HFD mice” value in test [1] (HFD fed WT mice injected with GalCer) is given as “reduction of senescent cells in WT HFD mice”. For the same compound, the “number of C12FDG^Hi preadipocytes in eWAT” value in test [1] (HFD mice injected with GalCer (2 μg i.p.) vs vehicle, FIG. 3A) is “deplete the number of these C12FDG^Hi cells to levels akin to those seen in lean control mice”. In addition, the “mortality (Kaplan Meier survival)” value in test [2] is on record as “significantly reduced”. Further, the “lung hydroxyproline content (fibrosis)” value in test [3] was “significantly reduced lung hydroxyproline content”.
